This note sets out measurements from patent US20240197700A1, “Methods and Compositions for Treating Lysosomal Storage Disorders” (Sanford Health, priority 2021, published 2024).

One series concerns Cln3^Δex7/8 mice. The series can be described thus: SubC burden (immunohistochemistry) in brain of Cln3^Δex7/8 mice. The format is in vivo, mouse. The protocol:
Specific experimental details are included in figure legends. In general, after collection and preparation, MEFs and PNCs were dosed with vehicle or AF38469 (40 nM, 400 nM. or 4 μM) on DIV3 and DIV5. On DIV7, cells were treated with the following dyes: Hoechst 33342 (1:1000 dilution), LysoTrackerT™ Red DND-99 (1:10,000 dilution), fixed, and imaged. Mice were given vehicle or AF38469 (78.125 μg/ml, 3.125 μg/ml, 0.3125 μg/ml or 0.03125 μg/ml equating approximately to 250 μg/mouse/day, 10 μg/mouse/day, 1 μg/mouse/day, and […], respectively, given a mouse's daily water intake of approximately 3.2 ml per day) in drinking water beginning at wean. Body weight was measured bi-weekly, and a force actimeter test was performed on Cln2^R207X mice at 10 weeks of age. Body weight was measured every month for Cln3^Δex7/8 mice. At 11 and 16 weeks of age, respectively, Cln2^R207X and Cln3^Δex7/8 mice along with age matched wild type control mice were CO2 euthanized and intracardially perfused with PBS. Brains were collected and placed on a 1 mm sagittal brain block. Brains were sliced at the midline and 3 mm right of the midline. One hemisphere was fixed in 4% PFA and sectioned at 50 microns on a vibratome. Immunohistochemistry was performed on free-floating sections. For mitochondrial ATP synthase subunit C (SubC), glial fibrillary acidic protein (GFAP), and cluster of differentiation 68 (CD68) immunolabeling, primary antibodies included anti-SubC (Abcam, ab181243; 1:1000), anti-GFAP (Dako, Z0334; 1:5000), anti-CD68 (AbD Serotec, MCA1957; 1:2000), and secondary antibodies included anti-rabbit biotinylated (Vector Labs, BA-1000 1:1000) and anti-rat (Vector Labs, BA-9400 1:1000). Coverslips were mounted on slides using antifade-mounting media and were stored in the dark before imaging. Sections were imaged and analyzed using an Aperio Digital Pathology Slide Scanner (AT2) and associated software. Images were extracted from S1BF of the somatosensory cortex and the VPM/VPL of the thalamus, with multiple images taken of multiple tissues from each animal.
Short-term chronic treatment with AF38469 reduces storage material burden in Cln2^R207X and Cln3^Δex7/8 mice. Beginning at wean, wild type and Cln2^R207X mice were treated with vehicle (0.2408% DMSO) or AF38469 (0.03125 μg/ml, 0.3125 μg/ml, 3.125 μg/ml, 78.125 μg/ml) continuously through the drinking water continuing until sacrifice at 11 weeks. Beginning at wean, wild type and Cln3^Δex7/8 mice were treated with vehicle (0.2408% DMSO) or AF38469 (0.03125 μg/ml, 0.3125 μg/ml, 3.125 μg/ml, 78.125 μg/ml) continuously through the drinking water until sacrifice at 16 weeks. Upon sacrifice, one hemisphere of brain was sectioned at 50 microns on a vibratome; DAB staining immunohistochemistry was then performed using anti-SubC (Abcam, ab181243) anti-rabbit biotinylated (Vector Labs, BA-1000). Sections were imaged and analyzed using an Aperio Digital Pathology Slide Scanner (AT2) and associated software. Images were extracted from S1BF of the somatosensory cortex and the VPM/VPL of the thalamus, key brain regions for Batten disease pathology. Percent area of immunoreactivity were quantified using a threshold analysis in ImageJ™. Statistical analyses were performed using GraphPad Prism™ (v8.4.3; San Diego, CA). […] Increasing concentrations of AF38469 and corresponding genotypes are shown along the x-axis. Nested one-way ANOVA. […]

Another series has as its system TFEB target genes. The experiment in a line: Comparative transcriptomic analysis (RNA sequencing, DEGs) in wild type MEFs. The series is classed as cell-based, mouse. As to conditions: 40 nM, dosed DIV3, RNA isolation DIV5. The protocol:
Comparative transcriptomic analysis of differentially expressed genes in AF38469 treated and vehicle treated wild type mouse embryonic fibroblasts. Wild type mouse embryonic fibroblasts were treated with vehicle or AF38469 (40 nM). Cells were plated on in vitro day 0, and cells were dosed with drug-containing media on DIV3, collection and RNA isolation occurred on DIV5. RNA sequencing and differentially expressed gene (DEG) analysis was performed with Novogene. DEGs were compared to lists of lysosomal genes and genes under TFEB regulation.

The subject of a further series is Cathepsin D. The series can be described thus: Cathepsin D enzyme in MEF lysates. The series is classed as cell-based, mouse. The protocol:
Since LM11A-31 stimulates the nuclear translocation of transcription factors responsible for lysosome biogenesis, we asked whether LM11A-31 increases the overall activity levels of lysosomalenzymes in cellulo. […] Wild type (WT) and mutant cells were treated with vehicle or LM11A-31 (100 nM). Cells were plated on day 0 and dosed with drug-containing media on DIV3 and DIV5. Cells were lysed, and protein quantification and enzyme activity assay were performed on DIV7. Data was analyzed with GraphPad Prism™. Two-way ANOVA. Mean±S.E.M. Tukey's multiple comparisons test. *p<0.05, **p<0.01, ***p<0.001, ****p<0.0001. […] Palmitoyl-protein thioesterase 1 (PPT1) is the lysosomal enzyme mutated in CLN1 disease and removes thioester-linked fatty acyl groups from modified cysteines of substrate proteins. Tripeptidyl peptidase 1 (TPP1) is the lysosomal enzyme mutated in CLN2 disease and has broad substrate specificity against various proteins degraded in the lysosome after cleavage. Mutations in the CTSD gene, encoding cathepsin d, a lysosomal protease that is involved in the recycling and degradation, is a known cause of Cln10 disease.

A short description of series [1]: Stability of semaglutide in solution (vehicle formulation). The format is physicochemical. To be noted: 4° C. The protocol:
In in vitro models, semaglutide (Creative Peptides, Catalog #910463-68-2) was tested in concentrations of 10 nM, 100 nM, and 1 μM in 1% DMSO. Vehicle treated cells were dosed with 1% DMSO. In in vivo models, semaglutide (Creative Peptides, Catalog #910463-68-2) was tested in concentrations of 2.571 μg/mouse and 25.71 μg/mouse prepared using the vehicle formulation for a total injection volume of 0.2 ml. Compound was stable in solution for 56 days at 4° C. Semaglutide was utilized at 98% HPLC purity.

Entries after “also recorded” stand apart in the source; their conditions may differ.

Take `Cc1cccc(NC(=O)c2ccc(C(F)(F)F)cc2C(=O)O)n1` [AF38469, 2-((6-methylpyridin-2-yl)carbamoyl)-5-(trifluoromethyl)benzoic acid]: the “Subunit C burden” value with Cln3^Δex7/8 mice (0.03125 μg/ml, 0.3125 μg/ml in drinking water, somatosensory cortex and VPM/VPL of the thalamus, 16 weeks) was “significantly decreased”; in the series on Cln3^Δex7/8 mice (3.125 μg/ml in drinking water, somatosensory cortex and VPM/VPL of the thalamus, 16 weeks) it was “significantly decreased”; with Cln3^Δex7/8 mice (3.125 μg/ml, 78.125 μg/ml in drinking water, somatosensory cortex, 16 weeks), “significantly decreased”. Further, the “all lysosomal differentially expressed genes or lysosomal genes not regulated by TFEB” value in the series with TFEB target genes was “no distinct pattern of up or down regulation”. The “expression of TFEB target genes” value with TFEB target genes was “stimulated increased expression; also recorded: stimulates; also recorded: distinct pattern of upregulation”.
Turning to `CC[C@H](C)[C@H](N)C(=O)NCCN1CCOCC1` [LM11A-31, N-[2-(morpholin-4-yl)ethyl]-L-isoleucinamide], the SubC burden result in the series with Cln3^Δex7/8 mice (LM11A-31 0.6 mg/mL, VPM/VPL of the thalamus) is “decrease; also recorded: decreasing trend”. The “Subunit C burden” value with Cln3^Δex7/8 mice (LM11A-31 0.6 mg/mL, somatosensory cortex (S1BF)) is on record as “increase; also recorded: did not significantly decreased”. Also, in the series on Cathepsin D (LM11A-31 100 nM, Cln2^R207X and Cln3^Δex7/8 MEFs, DIV7), the “levels of Cathepsin D” value is recorded as “significantly decreased”. Further, the “overall levels of activity for Cathepsin D enzyme in cell lysates” value in the series on Cathepsin D (LM11A-31, overall statement (FIG. 15B)) was “increased the overall levels of activity”.
Compound semaglutide came in with a stable in solution in series [1] of 56 days.
